Results as given in article PMC5943542, “Targeting LMW‐PTP to sensitize melanoma cancer cells toward chemo‐ and radiotherapy” (Cancer Medicine, 2018).

Target: T1, LMW-PTP (recombinant isoforms IF-A and IF-B) (Homo sapiens, UniProt P24666)
T1 construct: gene ACP1; purified recombinant human LMW-PTP, isoform A (IF-A) and isoform B (IF-B)
T1 sequence (P24666 2-158): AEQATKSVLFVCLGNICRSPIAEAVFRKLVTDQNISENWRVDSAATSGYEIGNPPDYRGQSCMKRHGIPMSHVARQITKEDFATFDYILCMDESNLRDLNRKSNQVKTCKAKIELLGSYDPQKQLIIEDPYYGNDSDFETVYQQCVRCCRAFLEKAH
Experiment: p-nitrophenylphosphate hydrolysis kinetics with purified recombinant enzyme, double reciprocal plots
Type: biochemical

**Q.** Which Ki does the source give for `O=c1c(O)c(-c2ccc(O)cc2O)oc2cc(O)cc(O)c12` [Morin] here?
**A.** micromolar range
